Assays:
[1] = biological target: T1, Sphingosine 1-phosphate receptor 4 (Homo sapiens, UniProt O95977); assay: Agonist activity at human S1P4R expressed in human U2OS cells containing EDG6 gene co-expressing GAL4-VP16 and beta-arrestin/TEV protease assessed as migration of VP16-GAL4 into nucleus by […] based beta-lactamase reporter gene assay; assay type: functional, cell-based
T1 sequence (O95977 whole entry): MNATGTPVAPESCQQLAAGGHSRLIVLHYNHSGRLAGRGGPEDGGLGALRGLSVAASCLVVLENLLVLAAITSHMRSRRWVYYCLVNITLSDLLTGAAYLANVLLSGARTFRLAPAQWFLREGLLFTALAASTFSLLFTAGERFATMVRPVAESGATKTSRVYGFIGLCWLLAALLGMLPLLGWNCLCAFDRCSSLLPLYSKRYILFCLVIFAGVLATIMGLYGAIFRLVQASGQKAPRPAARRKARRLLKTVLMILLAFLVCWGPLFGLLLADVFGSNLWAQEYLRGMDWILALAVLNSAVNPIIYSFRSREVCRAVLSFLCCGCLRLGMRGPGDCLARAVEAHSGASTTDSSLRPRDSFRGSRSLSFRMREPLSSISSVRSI

[2] = biological target: T1, Sphingosine 1-phosphate receptor 4; assay: Agonist activity at human S1P4R expressed in human U2OS cells containing EDG6 gene co-expressing GAL4-VP16 and beta-arrestin/TEV protease assessed as migration of VP16-GAL4 into nucleus up to 25 uM by […] based beta-lactamase reporter gene assay; assay type: functional, cell-based
[3] = biological target: Sphingosine 1-phosphate receptor 1 (Homo sapiens, UniProt P21453); assay: Agonist activity at S1P1R up to 25 uM; assay type: functional
[4] = biological target: Sphingosine 1-phosphate receptor 2 (Homo sapiens, UniProt O95136); assay: Agonist activity at S1P2R up to 25 uM; assay type: functional
[5] = biological target: Sphingosine 1-phosphate receptor 3 (Homo sapiens, UniProt Q99500); assay: Agonist activity at S1P3R up to 25 uM; assay type: functional
[6] = biological target: Sphingosine 1-phosphate receptor 5 (Homo sapiens, UniProt Q9H228); assay: Agonist activity at S1P5R up to 25 uM; assay type: functional
[7] = biological target: T2, Sphingosine 1-phosphate receptor 4 (Homo sapiens) (UniProt O95977); assay: Agonist activity at human S1P4R expressed in human U2OS cells containing EDG6 gene co-expressing GAL4-VP16 and beta-arrestin/TEV protease assessed as migration of VP16-GAL4 into nucleus at 1300 nM by […] based beta-lactamase reporter gene assay; assay type: functional, cell-based
T2 sequence (whole entry): T1 sequence (O95977 whole entry)

[8] = biological target: T2, Sphingosine 1-phosphate receptor 4 (Homo sapiens); assay: Agonist activity at human S1P4R expressed in human U2OS cells containing EDG6 gene co-expressing GAL4-VP16 and beta-arrestin/TEV protease assessed as migration of VP16-GAL4 into nucleus at 2600 nM by […] based beta-lactamase reporter gene assay; assay type: functional, cell-based
[9] = biological target: T2, Sphingosine 1-phosphate receptor 4 (Homo sapiens); assay: Agonist activity at human S1P4R expressed in human U2OS cells containing EDG6 gene co-expressing GAL4-VP16 and beta-arrestin/TEV protease assessed as migration of VP16-GAL4 into nucleus at 6000 nM by […] based beta-lactamase reporter gene assay; assay type: functional, cell-based
[10] = biological target: T2, Sphingosine 1-phosphate receptor 4 (Homo sapiens); assay: Agonist activity at human S1P4R expressed in human U2OS cells containing EDG6 gene co-expressing GAL4-VP16 and beta-arrestin/TEV protease assessed as migration of VP16-GAL4 into nucleus at 50 uM by […] based beta-lactamase reporter gene assay; assay type: functional, cell-based

Sequence of Sphingosine 1-phosphate receptor 3 (Q99500 whole entry): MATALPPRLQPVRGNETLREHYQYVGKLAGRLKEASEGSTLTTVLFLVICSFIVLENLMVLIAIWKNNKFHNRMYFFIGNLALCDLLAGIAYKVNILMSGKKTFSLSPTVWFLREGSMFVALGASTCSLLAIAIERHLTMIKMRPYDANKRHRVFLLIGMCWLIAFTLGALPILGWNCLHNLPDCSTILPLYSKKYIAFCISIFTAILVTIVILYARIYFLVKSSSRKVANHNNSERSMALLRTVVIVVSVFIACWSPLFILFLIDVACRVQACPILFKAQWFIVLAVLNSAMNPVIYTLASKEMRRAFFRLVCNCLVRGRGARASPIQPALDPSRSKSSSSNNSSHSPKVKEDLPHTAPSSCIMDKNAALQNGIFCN
Sequence of Sphingosine 1-phosphate receptor 1 (P21453 whole entry): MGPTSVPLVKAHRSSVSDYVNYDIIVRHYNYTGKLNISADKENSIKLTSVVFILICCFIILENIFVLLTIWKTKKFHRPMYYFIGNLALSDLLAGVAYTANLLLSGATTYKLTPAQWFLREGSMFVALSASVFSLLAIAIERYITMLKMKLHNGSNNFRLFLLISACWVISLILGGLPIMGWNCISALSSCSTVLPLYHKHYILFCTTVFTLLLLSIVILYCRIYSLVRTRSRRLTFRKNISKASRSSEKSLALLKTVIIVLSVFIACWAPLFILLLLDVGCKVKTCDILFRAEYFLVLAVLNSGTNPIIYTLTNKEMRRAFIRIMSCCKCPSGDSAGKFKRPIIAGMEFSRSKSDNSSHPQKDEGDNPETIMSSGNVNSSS
Sequence of Sphingosine 1-phosphate receptor 2 (O95136 whole entry): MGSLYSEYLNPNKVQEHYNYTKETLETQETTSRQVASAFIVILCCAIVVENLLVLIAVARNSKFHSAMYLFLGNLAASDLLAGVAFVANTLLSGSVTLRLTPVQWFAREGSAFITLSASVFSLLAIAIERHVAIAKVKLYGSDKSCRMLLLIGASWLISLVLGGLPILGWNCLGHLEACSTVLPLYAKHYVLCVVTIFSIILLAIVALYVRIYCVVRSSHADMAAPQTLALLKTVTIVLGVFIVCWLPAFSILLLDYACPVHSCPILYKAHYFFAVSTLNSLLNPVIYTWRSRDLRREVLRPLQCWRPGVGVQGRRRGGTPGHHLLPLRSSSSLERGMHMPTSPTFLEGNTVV
Sequence of Sphingosine 1-phosphate receptor 5 (Q9H228 whole entry, the tested form may be a part): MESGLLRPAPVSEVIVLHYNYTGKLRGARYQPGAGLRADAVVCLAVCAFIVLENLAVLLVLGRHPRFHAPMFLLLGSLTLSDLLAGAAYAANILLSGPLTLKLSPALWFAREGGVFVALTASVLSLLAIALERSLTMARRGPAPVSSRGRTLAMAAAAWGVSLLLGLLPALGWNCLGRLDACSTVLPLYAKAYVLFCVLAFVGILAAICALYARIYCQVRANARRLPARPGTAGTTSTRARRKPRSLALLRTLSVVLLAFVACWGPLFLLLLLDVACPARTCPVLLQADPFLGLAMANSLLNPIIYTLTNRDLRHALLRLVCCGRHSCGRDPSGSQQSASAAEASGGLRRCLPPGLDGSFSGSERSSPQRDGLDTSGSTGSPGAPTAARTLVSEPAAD

SMILES | EC50 [1] [nM] | EC50 [2] | further results
CCc1nc(C)ccc1OCCOc1ccc(Cl)cc1Cl | 7300 | – | –
Cc1ccc(OCCOc2cccc(Cl)c2Cl)c([N+](=O)[O-])n1 | – | Not Active | –
Cc1cc(C)c(OCCOc2ccc(Cl)cc2Cl)c(Br)n1 | – | Not Active | –
Cc1ccc2oc(COc3ccc(Cl)cc3Cl)nc2n1 | – | Not Active | –
Cc1ccc(OCCOc2ccc(Cl)cc2Cl)c([N+](=O)[O-])n1 | 162 | – | EC50 [3]: Not Active; EC50 [4]: Not Active; EC50 [5]: Not Active; EC50 [6]: Not Active
COc1cc(Cl)ccc1OCCOc1ccc(C)nc1[N+](=O)[O-] | 5400 | – | –
Cc1ccc(OCCOc2ccc([N+](=O)[O-])cc2F)c([N+](=O)[O-])n1 | 2800 | – | –
Clc1ccc(OCCOc2cccnc2Br)c(Cl)c1 | 1300 | – | –
Cc1ccc(OCCOc2ccccc2)c([N+](=O)[O-])n1 | – | Not Active | –
Cc1ccc(OCCOc2ccc(Cl)cc2Cl)c([N+](=O)[O-])c1 | 1300 | – | inhibition [7]: 40%
Cc1ccc(OC2CCCC2Oc2ccc(Cl)cc2Cl)c([N+](=O)[O-])n1 (stereo unspecified) | – | Not Active | –
Cc1ccc(NCCOc2ccc(Cl)cc2Cl)c([N+](=O)[O-])n1 | – | Not Active | –
Cc1ccc(OCCOc2ccc(Cl)c(Cl)c2)c([N+](=O)[O-])n1 | – | Not Active | –
Cc1ccc(OCCOc2ccc(Br)cc2Cl)c([N+](=O)[O-])n1 | 220 | – | EC50 [3]: Not Active; EC50 [4]: Not Active; EC50 [5]: Not Active; EC50 [6]: Not Active
Cc1ccc(OCCOc2ccc(Cl)cc2F)c([N+](=O)[O-])n1 | 3100 | – | –
Cc1ccc(OCCOc2ccc(F)cc2Cl)c([N+](=O)[O-])n1 | 2600 | – | –
O=[N+]([O-])c1ncccc1OCCOc1ccc(Cl)cc1Cl | 2980 | – | –
Clc1ccc(OCCOc2ccc(-c3ccccc3)nc2Br)c(Cl)c1 | 6000 | – | inhibition [9]: 70%
Cc1ccc(OCCOc2ccc(Br)cc2C(F)(F)F)c([N+](=O)[O-])n1 | 601 | – | EC50 [3]: Not Active; EC50 [4]: Not Active; EC50 [5]: Not Active; EC50 [6]: Not Active

SMILES | EC50 [1] [nM] | EC50 [2] | further results
COc1ccc(OCCOc2ccc(C)nc2[N+](=O)[O-])c(Cl)c1 | 3900 | – | –
Cc1ccc(OCCOc2ccc(Cl)cc2Cl)cn1 | – | Not Active | –
Cc1ccc(OCCOc2ccc(C)nc2[N+](=O)[O-])c(C)c1 | 7200 | – | –
Cc1ccc(OC(=O)COc2ccc(Cl)cc2Cl)c([N+](=O)[O-])n1 | – | Not Active | –
Cc1ccc(OCCOc2ccc(Cl)cc2Cl)c(-c2ccccc2)n1 | – | Not Active | –
Cc1ccc(OCCOc2ccc(Cl)cc2Cl)c(C(=O)N(C)C)n1 | – | Not Active | –
Cc1ccc(OCCCOc2ccc(Cl)cc2Cl)c([N+](=O)[O-])n1 | – | Not Active | –
Cc1ccc(OCCOc2ccc(-c3ccccc3)cc2Cl)c([N+](=O)[O-])n1 | – | Not Active | –
Cc1ccc(OCCOc2ccc(Cl)cc2Br)c([N+](=O)[O-])n1 | 232 | – | EC50 [3]: Not Active; EC50 [4]: Not Active; EC50 [5]: Not Active; EC50 [6]: Not Active
Cc1ccc(OCCOc2ccc(Cl)cc2Cl)c(C(=O)O)n1 | – | Not Active | –
COC(=O)c1nc(C)ccc1OCCOc1ccc(Cl)cc1Cl | 4800 | – | –
Cc1ccc(OCCOc2cc(Cl)cc([N+](=O)[O-])c2)c([N+](=O)[O-])n1 | 3500 | – | –
Cc1ccc(OCCOc2ccc(F)cc2F)c([N+](=O)[O-])n1 | – | – | inhibition [10]: 40%
Cc1ccc(OCCOc2ccccc2Cl)c([N+](=O)[O-])n1 | – | Not Active | –
Cc1ccc(OCCCc2ccc(Cl)cc2Cl)c([N+](=O)[O-])n1 | 920 | – | –
Cc1ccc(OCCOc2c(Cl)cc(Cl)cc2Cl)c([N+](=O)[O-])n1 | 570 | – | EC50 [3]: Not Active; EC50 [4]: Not Active; EC50 [5]: Not Active; EC50 [6]: Not Active
Cc1ccc(OCCOc2ccc(Cl)cc2)c([N+](=O)[O-])n1 | – | Not Active | –
Cc1ccc(OCCOc2cc(Cl)ccc2Cl)c([N+](=O)[O-])n1 | – | Not Active | –
Cc1ccc(OCCc2ccc(Cl)cc2Cl)c([N+](=O)[O-])n1 | – | Not Active | –

Continued, in another order:

EC50 [1] [nM] | EC50 [2] | SMILES | further results
1800 | – | O=Cc1ccc(OCCOc2ccc(Cl)cc2Cl)c(Cl)n1 | –
52 | – | Cc1ccc(OCCOc2ccc(Cl)cc2Cl)c(Br)n1 | EC50 [3]: Not Active; EC50 [4]: Not Active; EC50 [5]: Not Active; EC50 [6]: Not Active
– | Not Active | COCc1ccc(OCCOc2ccc(Cl)cc2Cl)c(Cl)n1 | –
287 | – | OCc1ccc(OCCOc2ccc(Cl)cc2Cl)c(I)n1 | EC50 [3]: Not Active; EC50 [4]: Not Active; EC50 [5]: Not Active; EC50 [6]: Not Active
– | Not Active | Cc1ccc(OCCOc2ccc(Cl)cc2Cl)c(N)n1 | –
208 | – | Fc1ccc(OCCOc2ccc(Cl)cc2Cl)c(Br)n1 | –
2100 | – | O=Cc1ccc(OCCOc2ccc(Cl)cc2Cl)c(I)n1 | –
45 | – | FCc1ccc(OCCOc2ccc(Cl)cc2Cl)c(Cl)n1 | EC50 [3]: Not Active; EC50 [4]: Not Active; EC50 [5]: Not Active; EC50 [6]: Not Active
54 | – | Cc1ccc(OCCOc2ccc(Cl)cc2Cl)c(I)n1 | EC50 [3]: Not Active; EC50 [4]: Not Active; EC50 [5]: Not Active; EC50 [6]: Not Active
2600 | – | Cc1ccc(OCCOc2ccc(Cl)cc2Cl)c(C)n1 | inhibition [8]: 65%
– | Not Active | Cc1ccc(OCCOc2ccc(Cl)cc2Cl)c(CO)n1 | –
304 | – | O=[N+]([O-])c1nc(Cl)ccc1OCCOc1ccc(Cl)cc1Cl | EC50 [3]: Not Active; EC50 [4]: Not Active; EC50 [5]: Not Active; EC50 [6]: Not Active
1500 | – | OCc1ccc(OCCOc2ccc(Cl)cc2Cl)c(Cl)n1 | –
658 | – | C=Cc1ccc(OCCOc2ccc(Cl)cc2Cl)c(Cl)n1 | –
46 | – | Clc1ccc(OCCOc2ccc(Br)nc2Br)c(Cl)c1 | EC50 [3]: Not Active; EC50 [4]: Not Active; EC50 [5]: Not Active; EC50 [6]: Not Active
– | Not Active | CC(C)=Cc1ccc(OCCOc2ccc(Cl)cc2Cl)c(Cl)n1 | –
